{"source": "paper PMC3724809", "about": "“Analysis of the Interaction Interfaces of the N-Terminal Domain from Pseudomonas aeruginosa MutL” (PLoS ONE, 2013)", "key": {"[1]": {"molecular_target": "T1, PaNTD (P. aeruginosa MutL N-terminal domain) (Pseudomonas aeruginosa, UniProt Q9HUL8)", "T1 sequence (Q9HUL8 1-339)": "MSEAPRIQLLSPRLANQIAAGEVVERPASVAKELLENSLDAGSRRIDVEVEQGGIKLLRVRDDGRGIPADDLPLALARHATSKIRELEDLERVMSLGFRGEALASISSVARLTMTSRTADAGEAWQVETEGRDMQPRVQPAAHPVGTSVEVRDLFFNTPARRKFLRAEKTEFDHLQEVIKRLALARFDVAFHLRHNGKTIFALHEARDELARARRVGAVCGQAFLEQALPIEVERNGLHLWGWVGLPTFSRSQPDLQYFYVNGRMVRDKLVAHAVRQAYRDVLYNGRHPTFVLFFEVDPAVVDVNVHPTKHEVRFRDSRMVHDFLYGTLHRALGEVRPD", "experiment": "size-exclusion chromatography, nucleotide-induced dimerization", "type": "binding", "conditions": "5 mM MgCl2, 150 mM KCl, 20 mM Tris-HCl pH 7.9, room temperature"}, "[2]": {"molecular_target": "T2, EcNTD (E. coli MutL N-terminal domain, LN40) (Escherichia coli, UniProt P23367)", "T2 sequence (P23367 1-342)": "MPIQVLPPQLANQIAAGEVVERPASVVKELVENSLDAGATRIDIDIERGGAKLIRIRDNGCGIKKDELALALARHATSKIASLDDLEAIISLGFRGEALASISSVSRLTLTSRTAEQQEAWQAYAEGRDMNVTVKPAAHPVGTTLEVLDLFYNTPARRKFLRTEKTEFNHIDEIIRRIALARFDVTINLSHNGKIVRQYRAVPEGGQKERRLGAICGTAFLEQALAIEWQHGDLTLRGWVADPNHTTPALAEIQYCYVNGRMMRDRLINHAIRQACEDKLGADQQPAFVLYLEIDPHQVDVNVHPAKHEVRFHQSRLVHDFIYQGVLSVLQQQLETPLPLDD", "experiment": "DSS chemical cross-linking, nucleotide-induced dimerization, SDS-PAGE", "type": "binding", "conditions": "1 mM AMPPNP, 5 mM MgCl2, 150 mM KCl, 20 mM HEPES pH 7.4, 4 °C"}, "[3]": {"molecular_target": "the molecule itself", "experiment": "SEC; Superose 12 10/30, 20 mM Tris-HCl pH 7.9, 150 mM KCl, 5 mM MgCl2, 1 mM DTT, room temperature; 1 mg/ml PaNTD or 2 mg/ml EcNTD (legend: 22 µM) without nucleotide, with ADP or with ATP; calibrated with BSA 45 and 66 kDa"}}, "data": [{"molecule": "Nc1ncnc2c1ncn2[C@@H]1O[C@H](COP(=O)(O)OP(=O)(O)OP(=O)(O)O)[C@@H](O)[C@H]1O", "note": "[ATP]", "values": [{"measurement": "size-exclusion chromatography, nucleotide-induced dimerization", "setting": "[1]", "result": "No major differences were observed among the elution pattern of ADP or ATP bound PaNTD"}]}, {"molecule": "Nc1ncnc2c1ncn2[C@@H]1O[C@H](COP(=O)(O)OP(=O)(O)NP(=O)(O)O)[C@@H](O)[C@H]1O", "note": "[AMPPNP]", "values": [{"measurement": "DSS chemical cross-linking, nucleotide-induced dimerization, SDS-PAGE", "setting": "[2]", "result": "EcNTD dimers were only observed in presence of AMPPNP (Figure S5)"}]}, {"molecule": "Nc1ncnc2c1ncn2[C@@H]1O[C@H](COP(=O)(O)OP(=O)(O)O)[C@@H](O)[C@H]1O", "note": "[ADP]", "values": [{"measurement": "size-exclusion chromatography, nucleotide-induced dimerization", "setting": "[1]", "result": "PaNTD binding to ADP displaced monomer-dimer equilibrium as judged by size-exclusion chromatography"}]}, {"molecule": "Pseudomonas aeruginosa MutL N-terminal domain (PaNTD, amino acids 1-339), His6-tagged (domain or fragment, UniProt Q9HUL8 1-339, looked up, MutL of Pseudomonas aeruginosa, N-terminal ATPase domain, residues 1-339 of PaMutL, amplified from genomic DNA; monomeric MW 37.7 kDa; The pET-15b vector should add an N-terminal His6 tag with a thrombin site (surmised, as is cloning through NdeI); no cleavage of the tag is described; also called His6-PaNTD; His-tag PaNTD) MSEAPRIQLLSPRLANQIAAGEVVERPASVAKELLENSLDAGSRRIDVEVEQGGIKLLRVRDDGRGIPADDLPLALARHATSKIRELEDLERVMSLGFRGEALASISSVARLTMTSRTADAGEAWQVETEGRDMQPRVQPAAHPVGTSVEVRDLFFNTPARRKFLRAEKTEFDHLQEVIKRLALARFDVAFHLRHNGKTIFALHEARDELARARRVGAVCGQAFLEQALPIEVERNGLHLWGWVGLPTFSRSQPDLQYFYVNGRMVRDKLVAHAVRQAYRDVLYNGRHPTFVLFFEVDPAVVDVNVHPTKHEVRFRDSRMVHDFLYGTLHRALGEVRPD", "values": [{"measurement": "dimer share of peak area", "setting": "[3]", "result": "~0.2 share of the dimer peak (monomer 0.8)"}, {"measurement": "stoichiometry N", "setting": "[3]", "result": 2}]}]}
